Measured values: patent publication US20170197935A1, “INHIBITORS OF DNA GYRASE FOR THE TREATMENT OF BACTERIAL INFECTIONS” (Vitas Pharma Research Private Limited, priority 2012, published 2017)
Values after ≈ are worked out from the molar mass of the structure shown.

Assays:
[1] = test system: Methicillin resistant Staphylococcus aureus (ATCC 33591); test: MIC by microbroth dilution, MRSA ATCC 33591; assay type: cell-based; settings: Formula II compounds, read-out: Minimum Inhibitory Concentration (MIC) MRSA ATCC 33591
Method: (§1) Shown below are the microbiological activities of representative compounds of Formula I of the invention. The compounds were tested by the microbroth dilution method (National committee for Clinical Laboratory Standards, 2011, M07-08) and the Minimum Inhibitory Concentration (MIC) was determined.
(§2) Analysis of microbiological activity of compounds shown below are the microbiological activities of representative compounds of Formula II of the invention. The compounds were tested by the microbroth dilution method as per the reference in Example 1.

[2] = test system: E. coli (ATCC 25922); test: MIC by microbroth dilution, E. coli ATCC 25922; assay type: cell-based; settings: Escherichia coli, ATCC25922, Formula II compounds, read-out: Minimum Inhibitory Concentration (MIC) E. coli ATCC 25922
Method: as §1, §2

[3] = Single dose pharmacokinetics in male Swiss albino mice; assay type: in vivo; settings: mouse, in vivo; for bioavailability: oral 10 mg/kg vs i.v. 5 mg/kg
Method: (§3) Compounds were dosed to male Swiss albino mice to determine the pharmacokinetic profiles.
as §3

[4] = test system: E. faecalis ATCC 51299; test: MIC by microbroth dilution, E. faecalis ATCC 51299; assay type: cell-based; settings: Enterococcus faecalis, ATCC51299, Formula II compounds, read-out: Minimum Inhibitory Concentration (MIC) E. faecalis ATCC 51299
Method: as §1, §2

[5] = test system: Acinetobacter BAA747; test: MIC by microbroth dilution, Acinetobacter BAA747; assay type: cell-based; settings: Formula II compounds, read-out: Minimum Inhibitory Concentration (MIC) Acinetobacter BAA747
Method: as §1, §2

[6] = test system: Pseudomonas ATCC 27853; test: MIC by microbroth dilution, Pseudomonas ATCC 27853; assay type: cell-based; settings: ATCC27853, Formula II compounds, read-out: Minimum Inhibitory Concentration (MIC) Pseudomonas ATCC 27853
Method: as §1, §2

[7] = molecular target: T1, ciprofloxacin resistant recombinant Gyrase protein (with mutation S83L) (Escherichia coli, UniProt P0AES4+P0AES6, S83L); test: Gyrase supercoiling assay with ciprofloxacin resistant Gyrase (S83L); assay type: biochemical; settings: read-out: Target specificity: % inhibition of supercoiling activity
T1 construct: purchased Inspiralis
Method: The enzyme is incubated with the substrate (relaxed DNA) in the presence and absence of compounds for 1 hour at 37° C. and the DNA is run on a gel at low voltage for several hours. The amount of supercoiled DNA is quantified using DNA imaging and quantification software (Image Lab). The activity of the enzyme is proportional to the amount of supercoiled form detected.

[8] = molecular target: hERG (Homo sapiens, UniProt Q12809); test: biochemical
Method: To test the ability of the VT-03 compounds to bind the hERG channel, membranes expressing the hERG channel were incubated with radiolabeled Astemizole and displacement of the labeled ligand in the presence of compounds was measured.
To test the ability of the VT-03 compounds (of Formula II) to bind the hERG channel, membranes expressing the hERG channel were incubated with radiolabeled Astemizole and displacement of the labeled ligand in the presence of compounds was measured.

Compound	MIC [1] [µg/mL]	MIC [2] [µg/mL]	AUC(0-t) ([3]; iv, 5 mg/kg) [ng·h/mL]	Cmax ([3]; iv, 5 mg/kg) [ng/mL]	Tmax ([3]; iv, 5 mg/kg) [min]	half-life ([3]; iv, 5 mg/kg) [min]	bioavailability [3] [%]	AUC(0-t) ([3]; oral, 10 mg/kg) [ng·h/mL]	Cmax ([3]; oral, 10 mg/kg) [ng/mL]	Tmax ([3]; oral, 10 mg/kg) [min]	MIC [4] [µg/mL]	MIC [5] [µg/mL]	MIC [6] [µg/mL]	inhibition at 0.1 µM [7] [%]	inhibition at 1 µM [7] [%]	half-life ([3]; oral, 10 mg/kg) [min]	IC50 [8] [µM]
Cc1ccc(CNC2CCN(CCn3c(=O)cnc4ccc(F)cc43)CC2)cc1[N+](=O)[O-] [VT-03-00113]	0.03 (≈ 0.0683 µM)	0.125 (≈ 0.284 µM)	402	672	9.6	22.2	1.16	9.3	15.6	30	0.25 (≈ 0.569 µM)	0.25 (≈ 0.569 µM)	8 (≈ 18.2 µM)	90	94	–	–
Cc1ccc(CNC2CCN(CCn3c(=O)cnc4ccc(OC(F)(F)F)cc43)CC2)cc1[N+](=O)[O-] [VT-03-00114]	0.06 (≈ 0.119 µM)	2 (≈ 3.96 µM)	–	–	–	–	–	–	–	–	0.5 (≈ 0.989 µM)	–	–	–	–	–	–
O=c1cnc2ccc(F)cc2n1CCN1CCC(NCc2ccc(Cl)c([N+](=O)[O-])c2)CC1 [VT-03-00116]	0.03 (≈ 0.0652 µM)	0.25 (≈ 0.544 µM)	–	–	–	–	–	–	–	–	0.25 (≈ 0.544 µM)	0.25 (≈ 0.544 µM)	16 (≈ 34.8 µM)	96.9	94.3	–	–
Cc1ccc(CNC2CCN(CCn3c(=O)cnc4ccc(F)cc43)CC2)cc1C#N [VT-03-00117]	0.125 (≈ 0.298 µM)	0.5 (≈ 1.19 µM)	–	–	–	–	–	–	–	–	0.25 (≈ 0.596 µM)	0.25 (≈ 0.596 µM)	16 (≈ 38.1 µM)	88.2	97.5	–	–
Cc1ccc(CNC2CCN(CCn3c(=O)cnc4ccc(Cl)nc43)CC2)cc1[N+](=O)[O-] [VT-03-00118]	0.015 (≈ 0.0328 µM)	0.25 (≈ 0.547 µM)	497	913	9.6	22.2	1.12	9.3	18.6	60	0.125 (≈ 0.274 µM)	0.25 (≈ 0.547 µM)	8 (≈ 17.5 µM)	91.5	89	666	> 30
Cc1ccc(CNC2CCN(CCn3c(=O)cnc4ncc(C#N)cc43)CC2)cc1[N+](=O)[O-] [VT-03-00119]	4 (≈ 8.94 µM)	8 (≈ 17.9 µM)	–	–	–	–	–	–	–	–	16 (≈ 35.8 µM)	8 (≈ 17.9 µM)	> 32	–	–	–	–
COc1ccc2ncc(=S)n(CCN3CCC(NCc4ccc(C)c(F)c4)CC3)c2c1 [VT-03-00126]	0.5 (≈ 1.13 µM)	2 (≈ 4.54 µM)	–	–	–	–	–	–	–	–	–	8 (≈ 18.2 µM)	> 32	–	–	–	–
COc1ccc2ncc(=S)n(CCN3CCC(NCc4ccc(C)c([N+](=O)[O-])c4)CC3)c2c1 [VT-03-00127]	0.125 (≈ 0.267 µM)	1 (≈ 2.14 µM)	527	478	9.6	120	18.8	198	97	30	1 (≈ 2.14 µM)	1 (≈ 2.14 µM)	8 (≈ 17.1 µM)	39	72	173	–
COc1ccc2ncc(=O)n(CCN3CCC(NCc4ccc(Cl)c([N+](=O)[O-])c4)CC3)c2c1 [VT-03-00128]	0.015 (≈ 0.0318 µM)	0.5 to 1 (≈ 1.06 to 2.12 µM)	–	–	–	–	–	–	–	–	0.25 (≈ 0.53 µM)	0.25 (≈ 0.53 µM)	8 (≈ 17 µM)	34	51	–	–
Cc1ccc(CNC2CCN(CCn3c(=O)cnc4ccc(Cl)nc43)CC2)cc1C#N [VT-03-00131]	0.25 (≈ 0.572 µM)	0.25 to 1 (≈ 0.572 to 2.29 µM)	–	–	–	–	–	–	–	–	0.25 (≈ 0.572 µM)	0.25 (≈ 0.572 µM)	16 (≈ 36.6 µM)	–	–	–	–
COc1ccc2ncc(=S)n(CCN3CCC(NCc4ccc(C)c(C#N)c4)CC3)c2c1 [VT-03-00132]	1 (≈ 2.23 µM)	2 (≈ 4.47 µM)	–	–	–	–	–	–	–	–	1 (≈ 2.23 µM)	2 (≈ 4.47 µM)	32 (≈ 71.5 µM)	–	–	–	–
COc1ccc2ncc(=O)n(CCN3CC[C@H](NCc4ccc(C)c([N+](=O)[O-])c4)[C@H](F)C3)c2c1 [VT-03-00134]	0.015 (≈ 0.0319 µM)	2 (≈ 4.26 µM)	–	–	–	–	–	–	–	–	0.25 (≈ 0.532 µM)	0.5 (≈ 1.06 µM)	32 (≈ 68.2 µM)	–	–	–	–
